Source: PubChem BioAssay (NCI)
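Grown in 96-well plates, cells were treated for 48 hours with each compound at five concentrations. Insufficient inhibition: endpoint recorded as highest concentration tested. TGI is the concentration that stops growth completely.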

How the values were obtained:
Assay in all cases: NCI anticancer screen, dose series, 48 h
SR leukemia = system: SR leukemia
UACC-62 melanoma = system: UACC-62 melanoma
T-47D breast = system: T-47D breast
EKVX NSCLC = system: EKVX NSCLC
HT29 colon = system: HT29 colon
SF-268 CNS = system: SF-268 CNS
CCRF-CEM leukemia = system: CCRF-CEM leukemia
HS 578T breast = system: HS 578T breast
A549 NSCLC = system: A549 NSCLC
MALME-3M melanoma = system: MALME-3M melanoma
SNB-75 CNS = system: SNB-75 CNS
A498 renal = system: A498 renal
M14 melanoma = system: M14 melanoma
HCT-116 colon = system: HCT-116 colon
NCI-H460 lung = system: NCI-H460 lung
SW-620 colon = system: SW-620 colon
UACC-257 melanoma = system: UACC-257 melanoma
MOLT-4 leukemia = system: MOLT-4 leukemia
OVCAR-3 ovarian = system: OVCAR-3 ovarian
NCI-H226 lung = system: NCI-H226 lung
OVCAR-4 ovarian = system: OVCAR-4 ovarian
K-562 leukemia = system: K-562 leukemia
CAKI-1 renal = system: CAKI-1 renal
NCI/ADR-RES ovarian = system: NCI/ADR-RES ovarian
SK-MEL-5 melanoma = system: SK-MEL-5 melanoma
HL-60(TB) leukemia = system: HL-60(TB) leukemia
HCC-2998 colon = system: HCC-2998 colon
COLO 205 colon = system: COLO 205 colon
MCF7 breast = system: MCF7 breast
OVCAR-8 ovarian = system: OVCAR-8 ovarian
MDA-N = system: MDA-N
TK-10 renal = system: TK-10 renal
BT-549 breast = system: BT-549 breast
SN12C renal = system: SN12C renal
U251 CNS = system: U251 CNS
LOX IMVI melanoma = system: LOX IMVI melanoma
NCI-H23 lung = system: NCI-H23 lung
DU-145 prostate = system: DU-145 prostate
MDA-MB-435 = system: MDA-MB-435
SK-MEL-2 melanoma = system: SK-MEL-2 melanoma
OVCAR-5 ovarian = system: OVCAR-5 ovarian
IGROV1 ovarian = system: IGROV1 ovarian
NCI-H522 lung = system: NCI-H522 lung
SK-MEL-28 melanoma = system: SK-MEL-28 melanoma
PC-3 prostate = system: PC-3 prostate
SNB-19 CNS = system: SNB-19 CNS
RPMI-8226 leukemia = system: RPMI-8226 leukemia
SF-539 CNS = system: SF-539 CNS
RXF 393 renal = system: RXF 393 renal
UO-31 renal = system: UO-31 renal
HCT-15 colon = system: HCT-15 colon
KM12 colon = system: KM12 colon
SK-OV-3 ovarian = system: SK-OV-3 ovarian
MDA-MB-231 breast = system: MDA-MB-231 breast
786-0 renal = system: 786-0 renal
ACHN renal = system: ACHN renal
HOP-92 NSCLC = system: HOP-92 NSCLC
HOP-62 NSCLC = system: HOP-62 NSCLC
SF-295 CNS = system: SF-295 CNS

`COC(=O)N/N=C(\c1ccccc1)c1ccc(OC)cc1` gave a TGI (SR leukemia) of over 100 µM, a TGI (UACC-62 melanoma) of over 100 µM and a TGI (T-47D breast) of over 100 µM. For the same molecule, the TGI (EKVX NSCLC) was over 100 µM, the TGI (HT29 colon) was over 100 µM and the TGI (SF-268 CNS) was over 100 µM. For the same molecule, the TGI (CCRF-CEM leukemia) was over 100 µM, the TGI (HS 578T breast) was over 100 µM and the TGI (A549 NSCLC) was over 100 µM. The TGI (MALME-3M melanoma) was over 100 µM, the TGI (SNB-75 CNS) was over 100 µM and the TGI (A498 renal) was over 100 µM. The TGI (M14 melanoma) was over 100 µM, the TGI (HCT-116 colon) was over 100 µM and the TGI (NCI-H460 lung) was over 100 µM. The TGI (SW-620 colon) was over 100 µM, the TGI (UACC-257 melanoma) was over 100 µM and the TGI (MOLT-4 leukemia) was over 100 µM. It also gave a TGI (OVCAR-3 ovarian) of over 100 µM, a TGI (NCI-H226 lung) of over 100 µM and a TGI (OVCAR-4 ovarian) of over 100 µM. It also gave a TGI (K-562 leukemia) of over 100 µM, a TGI (CAKI-1 renal) of over 100 µM and a TGI (NCI/ADR-RES ovarian) of over 100 µM. The TGI (SK-MEL-5 melanoma) was over 100 µM, the TGI (HL-60(TB) leukemia) was over 100 µM and the TGI (HCC-2998 colon) was over 100 µM. It also gave a TGI (COLO 205 colon) of over 100 µM, a TGI (MCF7 breast) of over 100 µM and a TGI (OVCAR-8 ovarian) of over 100 µM. It also gave a TGI (MDA-N) of over 100 µM, a TGI (TK-10 renal) of over 100 µM and a TGI (BT-549 breast) of over 100 µM. It also gave a TGI (SN12C renal) of over 100 µM, a TGI (U251 CNS) of over 100 µM and a TGI (LOX IMVI melanoma) of over 100 µM. For the same molecule, the TGI (NCI-H23 lung) was over 100 µM, the TGI (DU-145 prostate) was over 100 µM and the TGI (MDA-MB-435) was over 100 µM. For the same molecule, the TGI (SK-MEL-2 melanoma) was over 100 µM, the TGI (OVCAR-5 ovarian) was over 100 µM and the TGI (IGROV1 ovarian) was over 100 µM. The TGI (NCI-H522 lung) was over 100 µM, the TGI (SK-MEL-28 melanoma) was over 100 µM and the TGI (PC-3 prostate) was over 100 µM. For the same molecule, the TGI (SNB-19 CNS) was over 100 µM, the TGI (RPMI-8226 leukemia) was over 100 µM and the TGI (SF-539 CNS) was over 100 µM. The TGI (RXF 393 renal) was over 100 µM, the TGI (UO-31 renal) was over 100 µM and the TGI (HCT-15 colon) was over 100 µM. For the same molecule, the TGI (KM12 colon) was over 100 µM, the TGI (SK-OV-3 ovarian) was over 100 µM and the TGI (MDA-MB-231 breast) was over 100 µM. The TGI (786-0 renal) was over 100 µM.

`COC(=O)NC1C(C)OC(OC2C/C=C(/C)C3C=CC4C(OC5CC(OC6CC(OC7CC(O)C(O)C(C)O7)C(OC7CC(O)C(OC)C(C)O7)C(C)O6)C(O)C(C)O5)C(C)CC(C)C4C3(C)/C(O)=C3\C(=O)OC4(CC(C)C(CO)=CC4/C=C\2C)C3=O)CC1(C)[N+](=O)[O-]` (stereo not drawn) showed a TGI (SR leukemia) of 24.2 µM, a TGI (UACC-62 melanoma) of 17.8 µM and a TGI (T-47D breast) of 25 µM. The TGI (EKVX NSCLC) was 42.8 µM, the TGI (HT29 colon) was 20.5 µM and the TGI (SF-268 CNS) was over 100 µM. It also gave a TGI (CCRF-CEM leukemia) of 15.9 µM, a TGI (HS 578T breast) of over 100 µM and a TGI (A549 NSCLC) of over 100 µM. The TGI (SNB-75 CNS) was 16.7 µM, the TGI (ACHN renal) was 27.2 µM and the TGI (A498 renal) was 57.9 µM. It also gave a TGI (M14 melanoma) of 77 µM, a TGI (HCT-116 colon) of 3.09 µM and a TGI (NCI-H460 lung) of 4.86 µM. For the same molecule, the TGI (SW-620 colon) was over 100 µM, the TGI (UACC-257 melanoma) was 57.8 µM and the TGI (MOLT-4 leukemia) was 31.7 µM. It also gave a TGI (HOP-92 NSCLC) of 32.5 µM, a TGI (OVCAR-4 ovarian) of 46.2 µM and a TGI (CAKI-1 renal) of 41.1 µM. It also gave a TGI (NCI/ADR-RES ovarian) of over 100 µM, a TGI (SK-MEL-5 melanoma) of over 100 µM and a TGI (HL-60(TB) leukemia) of 11.4 µM. The TGI (HCC-2998 colon) was 18.9 µM, the TGI (COLO 205 colon) was 36.2 µM and the TGI (MCF7 breast) was over 100 µM. The TGI (OVCAR-8 ovarian) was 33.4 µM, the TGI (MDA-N) was over 100 µM and the TGI (TK-10 renal) was 40.6 µM. For the same molecule, the TGI (BT-549 breast) was 89.5 µM, the TGI (SN12C renal) was over 100 µM and the TGI (U251 CNS) was 44.9 µM. For the same molecule, the TGI (LOX IMVI melanoma) was 14.8 µM, the TGI (NCI-H23 lung) was 41.5 µM and the TGI (DU-145 prostate) was 19.6 µM. It also gave a TGI (MDA-MB-435) of over 100 µM, a TGI (SK-MEL-2 melanoma) of 87.2 µM and a TGI (OVCAR-5 ovarian) of 42.1 µM. The TGI (IGROV1 ovarian) was 34 µM, the TGI (NCI-H522 lung) was 49.4 µM and the TGI (SK-MEL-28 melanoma) was 81.3 µM. The TGI (HOP-62 NSCLC) was 37.8 µM, the TGI (PC-3 prostate) was over 100 µM and the TGI (SNB-19 CNS) was over 100 µM. The TGI (RPMI-8226 leukemia) was 7.66 µM, the TGI (SF-539 CNS) was over 100 µM and the TGI (UO-31 renal) was 51.3 µM. For the same molecule, the TGI (HCT-15 colon) was 36.4 µM, the TGI (KM12 colon) was 20.5 µM and the TGI (MDA-MB-231 breast) was 40.2 µM. For the same molecule, the TGI (SF-295 CNS) was 53.2 µM and the TGI (786-0 renal) was 7.08 µM.
